Experimental findings from patent US9447056B2, “Solid forms of epalrestat” (Bionevia Pharmaceuticals, Inc., priority 2008, dated 2016) are described below.

This data set is described as follows: Solid-form stability on compression into a disk (XRPD). Particulars: compressed into a disk at 3400 pounds of pressure (117 MPa) for 1 minute, Carver hydraulic press and pellet die. Format: physicochemical. From the text:
In various embodiments, the novel betaine cocrystal of epalrestat described herein is stable.

In the case of “betaine hydrogen diepalrestat [betaine hydrogen diacid cocrystal]”, the “change in XRPD pattern after compression” value is recorded as “no change in the XRPD pattern”.
